Results from patent US6479435B1, “Diaryl ethers and processes for their preparation and herbicidal and desiccant compositions containing them” (ISK Americas Incorporated, priority 1997, dated 2002).

How the values were obtained:
Assay type in all cases: in vivo
[1] = test system: Johnsongrass (Sorghum halepense, SORHA); experiment: Pre-emerge greenhouse herbicide test, phytotoxicity rating; details: 14 days after application, rating scale 0-100
How it was run: (§1)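 Visual 0–100 injury rating (100 = all plants dead) taken 14 days after treatment. Rates of 125–1000 g ai/ha in acetone, 187 l/ha, were sprayed onto soil one day post-sowing; pots were surface-watered to incorporate, then bottom-watered.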

[2] = test system: barnyardgrass (Echinochloa crusgalli, ECHCG); experiment: as above; details: 14 days after application, rating scale 0-100
How it was run: as §1

[3] = test system: common ragweed (Ambrosia artemisiifolia L., AMBEL); experiment: as above; details: 14 days after application, rating scale 0-100
How it was run: as §1

[4] = test system: green foxtail (Setaria viridis, SETVI); experiment: as above; details: 14 days after application, rating scale 0-100
How it was run: as §1

[5] = test system: ivyleaf morningglory (Ipomoea hederacea, IPOHE); experiment: as above; details: 14 days after application, rating scale 0-100
How it was run: as §1

[6] = test system: lambsquarters (Chenopodium album, CHEAL); experiment: as above; details: 14 days after application, rating scale 0-100
How it was run: as §1

[7] = test system: large crabgrass (Digitaria sanguinalis, DIGSA); experiment: as above; details: 14 days after application, rating scale 0-100
How it was run: as §1

[8] = test system: redroot pigweed (Amaranthus retroflexus, AMARE); experiment: as above; details: 14 days after application, rating scale 0-100
How it was run: as §1

[9] = test system: sicklepod (Cassia obtusifolia, CASOB); experiment: as above; details: 14 days after application, rating scale 0-100
How it was run: as §1

[10] = test system: velvetleaf (Abutilon theophrasti, ABUTH); experiment: as above; details: 14 days after application, rating scale 0-100
How it was run: as §1

[11] = test system: field corn (Zea mays L., var. Dekalb 535, CORN); experiment: Pre-emerge greenhouse test, crop damage rating; details: 14 days after application, rating scale 0-100
How it was run: as §1

[12] = test system: upland rice (Oryza sp., var.Tebonnet, RICE); experiment: Pre-emerge greenhouse test, crop damage rating; details: 14 days after application, rating scale 0-100
How it was run: as §1

[13] = test system: soybean (Glycine max L., var. Pella 86, SOY); experiment: Pre-emerge greenhouse test, crop damage rating; details: 14 days after application, rating scale 0-100
How it was run: as §1

[14] = test system: common ragweed (Ambrosia artemisiifolia L., AMBEL); experiment: Post-emerge greenhouse herbicide test, phytotoxicity rating; details: 14 days after application
How it was run: (§2)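 Scores use a 0 (no damage) to 100 (complete kill) scale, taken 14 days after a foliar spray. Acetone solutions with 0.25% v/v non-ionic surfactant were applied by track sprayer at 187 l/ha and 63-1000 g ai/ha to bottom-watered 2-3 leaf plants.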

[15] = test system: Johnsongrass (Sorghum halepense, SORHA); experiment: as above; details: 14 days after application
How it was run: as §2

[16] = test system: barnyardgrass (Echinochloa crusgalli, ECHCG); experiment: as above; details: 14 days after application
How it was run: as §2

[17] = test system: green foxtail (Setaria viridis, SETVI); experiment: as above; details: 14 days after application
How it was run: as §2

[18] = test system: ivyleaf morningglory (Ipomoea hederacea, IPOHE); experiment: as above; details: 14 days after application
How it was run: as §2

[19] = test system: lambsquarters (Chenopodium album, CHEAL); experiment: as above; details: 14 days after application
How it was run: as §2

[20] = test system: large crabgrass (Digitaria sanguinalis, DIGSA); experiment: as above; details: 14 days after application
How it was run: as §2

[21] = test system: redroot pigweed (Amaranthus retroflexus, AMARE); experiment: as above; details: 14 days after application
How it was run: as §2

[22] = test system: velvetleaf (Abutilon theophrasti, ABUTH); experiment: as above; details: 14 days after application
How it was run: as §2

[23] = test system: field corn (Zea mays L., var. Dekalb 535, CORN); experiment: Post-emerge greenhouse test, crop damage rating; details: 14 days after application
How it was run: as §2

[24] = test system: upland rice (Oryza sp., var.Tebonnet, RICE); experiment: Post-emerge greenhouse test, crop damage rating; details: 14 days after application
How it was run: as §2

[25] = test system: soybean (Glycine max L., var. Pella 86, SOY); experiment: Post-emerge greenhouse test, crop damage rating; details: 14 days after application
How it was run: as §2

Cn1nc(-c2cc(Oc3ncccc3[N+](=O)[O-])c(Cl)cc2F)c(Cl)c1C(F)(F)F [Compound 1-1]
phytotoxicity rating SORHA ([1]; 500 g ai/ha): 70 | phytotoxicity rating ECHCG ([2]; 500 g ai/ha): 50 | phytotoxicity rating AMBEL ([3]; 500 g ai/ha): 50 | phytotoxicity rating SETVI ([4]; 500 g ai/ha): 100 | phytotoxicity rating IPOHE ([5]; 500 g ai/ha): 10 | phytotoxicity rating CHEAL ([6]; 500 g ai/ha): 100 | phytotoxicity rating DIGSA ([7]; 500 g ai/ha): 90 | phytotoxicity rating AMARE ([8]; 500 g ai/ha): 100 | phytotoxicity rating CASOB ([9]; 500 g ai/ha): 20 | phytotoxicity rating ABUTH ([10]; 500 g ai/ha): 60 | crop damage rating CORN ([11]; 500 g ai/ha): 20 | crop damage rating RICE ([12]; 500 g ai/ha): 20 | crop damage rating SOY ([13]; 500 g ai/ha): 10 | AMBEL phytotoxicity rating (0-100) ([14]; 500 g al/ha): 100 | SORHA phytotoxicity rating (0-100) ([15]; 500 g al/ha): 90 | ECHCG phytotoxicity rating (0-100) ([16]; 500 g al/ha): 100 | SETVI phytotoxicity rating (0-100) ([17]; 500 g al/ha): 100 | IPOHE phytotoxicity rating (0-100) ([18]; 500 g al/ha): 100 | CHEAL phytotoxicity rating (0-100) ([19]; 500 g al/ha): 100 | DIGSA phytotoxicity rating (0-100) ([20]; 500 g al/ha): 95 | AMARE phytotoxicity rating (0-100) ([21]; 500 g al/ha): 100 | ABUTH phytotoxicity rating (0-100) ([22]; 500 g al/ha): 100 | CORN crop damage rating (0-100) ([23]; 500 g al/ha): 60 | RICE crop damage rating (0-100) ([24]; 500 g al/ha): 90 | SOY crop damage rating (0-100) ([25]; 500 g al/ha): 100

O=c1n(CCCF)nnn1-c1cc(Oc2ncccc2[N+](=O)[O-])c(Cl)cc1Cl [Compound 6-3]
phytotoxicity rating SORHA ([1]; 125 g ai/ha): 30 | phytotoxicity rating SORHA ([1]; 500 g ai/ha): 0 | phytotoxicity rating ECHCG ([2]; 125 g ai/ha): 60 | phytotoxicity rating ECHCG ([2]; 500 g ai/ha): 0 | phytotoxicity rating AMBEL ([3]; 125 g ai/ha): 100 | phytotoxicity rating AMBEL ([3]; 500 g ai/ha): 40 | phytotoxicity rating SETVI ([4]; 125 g ai/ha): 99 | phytotoxicity rating SETVI ([4]; 500 g ai/ha): 70 | phytotoxicity rating IPOHE ([5]; 125 g ai/ha): 0 | phytotoxicity rating IPOHE ([5]; 500 g ai/ha): 20 | phytotoxicity rating CHEAL ([6]; 125 g ai/ha): 0 | phytotoxicity rating CHEAL ([6]; 500 g ai/ha): 90 | phytotoxicity rating DIGSA ([7]; 125 g ai/ha): 10 | phytotoxicity rating DIGSA ([7]; 500 g ai/ha): 50 | phytotoxicity rating AMARE ([8]; 125 g ai/ha): 0 | phytotoxicity rating AMARE ([8]; 500 g ai/ha): 90 | phytotoxicity rating CASOB ([9]; 125 g ai/ha): 30 | phytotoxicity rating CASOB ([9]; 500 g ai/ha): 40 | phytotoxicity rating ABUTH ([10]; 125 g ai/ha): 40 | phytotoxicity rating ABUTH ([10]; 500 g ai/ha): 30 | crop damage rating CORN ([11]; 125 g ai/ha): 30 | crop damage rating CORN ([11]; 500 g ai/ha): 10 | crop damage rating RICE ([12]; 125 g ai/ha): 20 | crop damage rating RICE ([12]; 500 g ai/ha): 20 | crop damage rating SOY ([13]; 125 g ai/ha): 0 | crop damage rating SOY ([13]; 500 g ai/ha): 0 | AMBEL phytotoxicity rating (0-100) ([14]; 63 g al/ha): 0 | AMBEL phytotoxicity rating (0-100) ([14]; 500 g al/ha): 0 | SORHA phytotoxicity rating (0-100) ([15]; 63 g al/ha): 0 | SORHA phytotoxicity rating (0-100) ([15]; 500 g al/ha): 30 | ECHCG phytotoxicity rating (0-100) ([16]; 63 g al/ha): 0 | ECHCG phytotoxicity rating (0-100) ([16]; 500 g al/ha): 20 | SETVI phytotoxicity rating (0-100) ([17]; 63 g al/ha): 0 | SETVI phytotoxicity rating (0-100) ([17]; 500 g al/ha): 30 | IPOHE phytotoxicity rating (0-100) ([18]; 63 g al/ha): 20 | IPOHE phytotoxicity rating (0-100) ([18]; 500 g al/ha): 70 | CHEAL phytotoxicity rating (0-100) ([19]; 63 g al/ha): 0 | CHEAL phytotoxicity rating (0-100) ([19]; 500 g al/ha): 80 | DIGSA phytotoxicity rating (0-100) ([20]; 63 g al/ha): 0 | DIGSA phytotoxicity rating (0-100) ([20]; 500 g al/ha): 0 | AMARE phytotoxicity rating (0-100) ([21]; 63 g al/ha): 20 | AMARE phytotoxicity rating (0-100) ([21]; 500 g al/ha): 80 | ABUTH phytotoxicity rating (0-100) ([22]; 63 g al/ha): 0 | ABUTH phytotoxicity rating (0-100) ([22]; 500 g al/ha): 20 | CORN crop damage rating (0-100) ([23]; 63 g al/ha): 0 | CORN crop damage rating (0-100) ([23]; 500 g al/ha): 0 | RICE crop damage rating (0-100) ([24]; 63 g al/ha): 0 | RICE crop damage rating (0-100) ([24]; 500 g al/ha): 40 | SOY crop damage rating (0-100) ([25]; 63 g al/ha): 0 | SOY crop damage rating (0-100) ([25]; 500 g al/ha): 30
